In US20100063020A1, “ORAL PHARMACEUTICAL FORMULATIONS AND METHODS FOR PRODUCING AND USING SAME” (priority 2004, published 2010):
In brackets after ≈: the same amount, converted by molar mass. Several values for one entry are separate records, joined by “and”; a condition that tells them apart may be missing. Equal entries are not always repeated. Where two headings read alike, the source gives them in different places.

What was measured:
Caco-2 cell monolayer = experiment: in vitro; format: in vitro ADME
Source text: The permeability of the pharmaceutical active ingredient across the gastrointestinal membrane may be estimated from it permeability across a Caco-2 cell monolayer using standard techniques (e.g. Chong S et al. Pharmaceutical Research 1997 14(12):1835-1837). The reference is hereby expressly incorporated by reference.
Propranolol was included in each assay as a high permeability control compound.

[1] = Solubility assay in simulated intestinal fluid (SIF); format: physicochemical; conditions: low melt form; simulated intestinal fluid per USP w/o pancreatin, 24 hours at 37° C.
Method: The solubility of an active ingredient may be assayed by its dissolution in a simulated intestinal fluid (SIF) (per USP w/o pancreatin). Conforma Therapeutics has developed a database of SIF solubility data using this assay for a structurally diverse set of compounds that have also been administered orally to mice.
The mixture was incubated with continuous shaking for a predetermined time and temperature, e.g., for 24 hours at 37° C. […] The solubility of the active ingredient is calculated as the difference between the initial and final concentration of the active ingredient in the supernatant normalized to the total volume of SIF used.
The tube was then sonicated for 5 minutes then incubated for 24 hours at 37° C. with shaking. […] Conforma Therapeutics has developed a database of SIF solubility data using this assay for a structurally diverse set of compounds that have also been administered orally to mice.

[2] = Mouse serum pharmacokinetics of low melt 17-AAG in PEG-Tween; format: in vivo; conditions: Balb/C mice, PO 40 mg/kg
Method: Six to 8 week old Balb/C mice were obtained from Harlan Sprague Dawley, (Indianapolis, Ind.). The mice were maintained in sterilized filter topped cages or ventilated caging in a room with a 12-h light/12-h dark photoperiod at temperature of 21-23° C. and a relative humidity of 50±5%. Irradiated pelleted food (Harlan Teklad #7912) and autoclaved deionized water were provided ad libitum. Experiments were carried out under institutional guidelines for the proper and humane use of animals in research established by the Institute for Laboratory Animal Research (ILAR).
Drug solutions were prepared and the concentrations were adjusted so that mice received a dose of 2-15 ml/kg administered intravenously (I.V.) as a bolus, orally, or intra-peritoneally (I.P.). In I.V. studies blood was sampled at 1, 5, 15, 30, 90 and 120 min. In oral and I.P. studies blood was sampled at 5, 15, 30, 90, 180 minutes and in some cases up to 240 minutes. Blood was collected in capillary tubes, transferred to microcentrifuge tubes, allowed to clot and centrifuged at 14,000 g for 10 minutes at 4° C. to obtain serum.

[3] = Solubility of 17-AAG in organic solvents suitable for oral administration; format: physicochemical
Source text: In other embodiments, pharmaceutical acceptable co-solvents may be added to the phospholipid formulation to further enhance the solubility of the ansamycins. Many suitable co-solvents which are known in the art may be used. […] The resulted formulation can then be combined with any combinations of the general excipients: fillers, glidants, lubricants, disintegrants, binders, solubilizers to form the various oral compositions.

[4] = Absolute oral bioavailability of 17-AAG lipid complex formulation in female rats; format: in vivo, Sprague-Dawley rats; conditions: rat; for Apparent Absolute Bioavailability: oral 50 mg/kg vs intravenous 10 mg/kg
Method: Female Sprague-Dawley rats were administered a phospholipid complex formulation of the low melt form of 17-AAG by oral gavage or as intravenous infusion (tail vein). Blood samples were collected prior to dosing and up to 6 hrs post dosing.
% F=[(Oral AUC(0-6h)×I.V. Dose)/(I.V. AUC(0-6h)×Oral Dose)]*100.
(§1) Blood samples (n=11) were collected via the jugular vein catheter prior to dosing and up to 6 hrs post dosing. The blood was allowed to clot at room temperature for approximately 20 minutes and then placed on ice until centrifugation at 10,000×G for 10 minutes. Serum was collected into polypropylene tubes and frozen at −80° C. until analysis.

[5] = adult patients, cited from earlier work; for Cmax: read-out: Plasma Cmax
[6] = aqueous reconstituted lyophilized preparation containing sucrose; cited from earlier work
[7] = Oral bioavailability of prototype 17-AAG solid dosage form (capsule) in female rats; format: in vivo, Sprague-Dawley rats; conditions: rat; for 17-AAG AUC(0-6)^b: oral capsule (17-AAG 33%, Neusilin 64%, SLS 3%), AUC estimated from 0 to 8 hrs; for 17-AAG Cmax / 17-AG Cmax / Apparent Absolute Bioavailability: oral capsule; for 17-AG Cmax: metabolite 17-AG; for Apparent Absolute Bioavailability: vs intravenous 10 mg/kg of earlier study
Method: See, Example 18. […] The average dose administered was 14.3 mg/kg.
as §1, with “The average dose administered was 14.3 mg/kg. Blood” for “Blood”, “8” for “6”
% F=[(Oral AUC(0-6h)×I.V. Dose)/(I.V. AUC(0-6h)×Oral Dose)]*100

[8] = intravenous 10 mg/kg, individual animal, 10 mg/kg
[9] = intravenous 10 mg/kg, metabolite 17-AG, individual animal, 10 mg/kg
[10] = intravenous 10 mg/kg, metabolite 17-AG, mean n=3
[11] = oral 50 mg/kg, individual animal, 50 mg/kg
[12] = oral 50 mg/kg, metabolite 17-AG, individual animal, 50 mg/kg
[13] = 13.6-15.1 mg/kg, individual animal

## C=CCNC1=C2C[C@@H](C)C[C@H](OC)[C@H](O)[C@@H](C)/C=C(\C)[C@H](OC(N)=O)[C@@H](OC)/C=C\C=C(/C)C(=O)NC(=CC1=O)C2=O [Compound 17-AAG, 17-allylamino-17-demethoxygeldanamycin]
Caco-2 cell monolayer
  permeability across the Caco-2 monolayer: 19 ×10⁻⁶ cm/s
[1]
  solubility in SIF: 0.088 mg/mL (≈ 150 µM)
[2]; low melt form
  17-AAG AUCobs: 433 µg·min/mL
  17-AAG Cmax: 5000 ng/mL
[2]; metabolite 17-AG
  17-AG AUCobs: 163 µg·min/mL
  17-AG Cmax: 2400 ng/mL
[2]; relative to IV 40 mg/kg
  % F: 25%
[3]; solvent Glycerol
  Solubility: 1.1 mg/mL
[3]; solvent Glycofurol
  Solubility: 47.0 mg/mL
[3]; solvent Labrafil (Apricot Kernol Oil PEG-6 Esters)
  Solubility: 2.4 mg/mL
[3]; solvent Labrasol (PEG-8 Caprylic/Capric Glycerides)
  Solubility: 16.1 mg/mL
[3]; solvent Polyethylene glycol 400
  Solubility: 12.9 mg/mL
[3]; solvent Propylene Carbonate
  Solubility: 12.8 mg/mL
[3]; solvent Solutol HS15
  Solubility: 12.4 mg/mL
[3]; solvent Transcutol HP (Ethoxydiglycol)
  Solubility: 57.7 mg/mL
[3]; solvent Tween 80
  Solubility: 33.8 mg/mL
[4]; [8]
  17-AAG AUC(0-6): 172 µg·min/mL and 161 µg·min/mL and 135 µg·min/mL
  17-AAG Cmax: 8700 ng/mL and 8000 ng/mL and 7000 ng/mL
[4]; intravenous 10 mg/kg, mean n=3
  17-AAG AUC(0-6): 156 µg·min/mL
  17-AAG Cmax: 7900 ng/mL
[4]; [9]
  17-AG AUC(0-6): 17 µg·min/mL and 25 µg·min/mL and 37 µg·min/mL
  17-AG Cmax: 300 ng/mL and 200 ng/mL
[4]; [10]
  17-AG AUC(0-6): 26 µg·min/mL
  17-AG Cmax: 200 ng/mL
[4]; individual animal
  Apparent Absolute Bioavailability: 160% and 129% and 39%
[4]; mean n=3
  Apparent Absolute Bioavailability: 109±63%
[4]; oral 50 mg/kg, 6 h
  17-AAG mean serum concentration six hours post oral dosing: 1.6 ± 0.8 µg/mL
[4]; oral 50 mg/kg, 6 h, metabolite 17-AG
  17-AG mean serum concentration six hours post oral dosing: 0.6 ± 0.1 µg/mL
[4]; [11]
  17-AAG AUC(0-6): 1248 µg·min/mL and 1003 µg·min/mL and 305 µg·min/mL
  17-AAG Cmax: 5700 ng/mL and 4700 ng/mL and 1200 ng/mL
[4]; oral 50 mg/kg, mean n=3
  17-AAG AUC(0-6): 852 µg·min/mL
  17-AAG Cmax: 3900 ± 2400 ng/mL
[4]; [12]
  17-AG AUC(0-6): 252 µg·min/mL and 238 µg·min/mL and 156 µg·min/mL
  17-AG Cmax: 1200 ng/mL and 900 ng/mL
[4]; oral 50 mg/kg, metabolite 17-AG, mean n=3
  17-AG AUC(0-6): 215 µg·min/mL
[4]; oral 50 mg/kg, metabolite 17-AG, mean n=3, 50 mg/kg
  17-AG Cmax: 1000 ng/mL
[5]; daily 1-hour infusion for 5 days every three weeks
  maximum tolerated dose (MTD): 40 mg/m^2
[5]; mean±SD
  clearance: 41.0 ± 13.5 L/h
  terminal half-life: 2.5 ± 0.5 h
[5]; 40 mg/m^2
  Cmax: 1860 ± 660 nM
[5]; 56 mg/m^2
  Cmax: 3170 ± 1310 nM
[6]
  oral bioavailability: 24%
[7]; [13]
  17-AAG AUC(0-6)^b: 32 µg·min/mL and 19 µg·min/mL and 34 µg·min/mL
  17-AAG Cmax: 158 ng/mL and 117 ng/mL and 141 ng/mL
  17-AG Cmax: 70 ng/mL and 61 ng/mL and 52 ng/mL
  Apparent Absolute Bioavailability: 15% and 8% and 16%
[7]; mean dose 14.3 mg/kg, mean n=3
  17-AAG AUC(0-6)^b: 28 µg·min/mL
  17-AAG Cmax: 139 ± 21 ng/mL
  17-AG Cmax: 61 ± 9 ng/mL
  Apparent Absolute Bioavailability: 13±4%
